For data set [1], the system named is sword bean-derived urease. The experiment in a line: Inhibitory activity against urease (method of Kobashi et al.). Conditions: at 4.0 × 10^-3 M. The data set is classed as biochemical. As for the experimental part:
(2) Inhibitory activity against urease
The inhibitory activity against urease was assayed in accordance with the method of Kobashi et al. [see Biochem. Biophys.

For a further data set, the system named is trypsin. Kind of data set: Inhibitory activity against trypsin (method of Laskowski, thermally denatured casein substrate). The class given is biochemical. As for the experimental part: (§1) (3) Inhibitory activity against thermolysin, trypsin and α-chymotrypsin
(§2) This was assayed in accordance with the method of Laskowski [see Meth. Enzymol., 2, 8 (1955)] using a thermally denatured casein as substrate for the respective enzymes (i.e. thermolysin, trypsin and α-chymotrypsin).

The target of data set [2] is T1, human fibroblast collagenase (Homo sapiens, UniProt P03956).
T1 construct: collagenase derived from human fibroblasts; from tissue; host or cells: human fibroblasts
T1 sequence (P03956 100-469): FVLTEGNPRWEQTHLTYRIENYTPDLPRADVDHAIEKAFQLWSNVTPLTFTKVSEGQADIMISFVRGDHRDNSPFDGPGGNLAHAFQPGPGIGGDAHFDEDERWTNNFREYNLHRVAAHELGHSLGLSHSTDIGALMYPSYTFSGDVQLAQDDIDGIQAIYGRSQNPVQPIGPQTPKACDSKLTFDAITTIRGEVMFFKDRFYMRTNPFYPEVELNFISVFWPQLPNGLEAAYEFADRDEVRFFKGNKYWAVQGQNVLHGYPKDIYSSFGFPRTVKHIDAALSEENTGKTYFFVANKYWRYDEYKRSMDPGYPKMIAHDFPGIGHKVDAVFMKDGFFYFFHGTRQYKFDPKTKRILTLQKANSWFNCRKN
Kind of data set: Inhibitory activity against human fibroblast collagenase (method of Nagai, FITC-derivatized bovine type I collagen). The class given is biochemical. As to the method:
(§3) (1) Inhibitory activity against collagenases
(§4) The inhibitory activity against human fibroblast collagenase (collagenase derived from human fibroblasts), tadpole-derived collagenase and bacteria (Clostridium)-derived collagenase was assayed in accordance with the method of Nagai [see Ensho, 4(2), 123 (1984)] using a fluorescence-labeledcollagen (FITC-derivatized bovine type I collagen).

For a further data set, the target named is α-chymotrypsin (Bos taurus, UniProt P00766). Kind of data set: Inhibitory activity against α-chymotrypsin (method of Laskowski, thermally denatured casein substrate). Conditions: for inhibition at 4000 µM: at 4.0 × 10^-3 M. The data set is classed as biochemical. As for the experimental part:
as §1, §2

In a further data set the test system is mice. Kind of data set: Acute toxicity test (LD50) in mice. The class given is in vivo. An excerpt:
The toxicity of the new peptide compounds of this invention is as follows:
Acute toxicity test (LD50) in mice

The subject of data set [3] is bacteria (Clostridium)-derived collagenase. Kind of data set: Inhibitory activity against bacteria (Clostridium)-derived collagenase (method of Nagai, FITC-derivatized bovine type I collagen). The data set is classed as biochemical. As to the method: as §3, §4
Another data set deals with T2, thermolysin (Bacillus thermoproteolyticus, UniProt P00800).
T2 sequence (P00800 233-548): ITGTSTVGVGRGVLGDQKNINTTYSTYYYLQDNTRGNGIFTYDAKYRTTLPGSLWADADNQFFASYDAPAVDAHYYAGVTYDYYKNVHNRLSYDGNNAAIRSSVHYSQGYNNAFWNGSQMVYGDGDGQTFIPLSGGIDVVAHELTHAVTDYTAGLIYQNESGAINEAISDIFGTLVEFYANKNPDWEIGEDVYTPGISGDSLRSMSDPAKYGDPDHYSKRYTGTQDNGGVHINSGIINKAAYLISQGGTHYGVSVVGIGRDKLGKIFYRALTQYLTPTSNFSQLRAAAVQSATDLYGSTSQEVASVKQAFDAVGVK
Kind of data set: Inhibitory activity against thermolysin (method of Laskowski, thermally denatured casein substrate). The class given is biochemical. The conditions noted are these: for inhibition at 4000 µM: at 4.0 × 10^-3 M. As for the experimental part: as §1, §2

Data set [4] concerns the target T3, tadpole-derived collagenase (Aquarana catesbeiana, UniProt Q11133).
T3 construct: collagenase from tadpoles; from tissue
T3 sequence (Q11133 89-384): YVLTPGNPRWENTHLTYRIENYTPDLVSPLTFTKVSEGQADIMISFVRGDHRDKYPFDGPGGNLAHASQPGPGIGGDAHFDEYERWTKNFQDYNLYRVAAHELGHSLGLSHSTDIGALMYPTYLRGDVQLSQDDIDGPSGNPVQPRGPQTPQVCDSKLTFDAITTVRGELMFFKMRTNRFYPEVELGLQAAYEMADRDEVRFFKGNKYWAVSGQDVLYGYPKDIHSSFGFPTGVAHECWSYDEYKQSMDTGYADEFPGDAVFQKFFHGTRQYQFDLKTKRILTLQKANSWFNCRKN
The experiment in a line: biochemical. As to the method:
as §3, §4

[5] abbreviates: read-out: IC50 Human fibroblast collagenase.

Each structure is given as a SMILES string. Like-named read-outs stand apart in the source and are kept apart here. Square brackets hold non-standard residues; d marks the D form. Peptide text beside a SMILES is read from it. * marks the point of attachment. Benzoyl(4-OH) = O=C(c1ccc(O)cc1)*; 4Abz = Nc1ccc(C(=O)O)cc1; Boc = CC(C)(C)OC(=O)*; Bz = O=C(c1ccccc1)*; NHOH = ON*

As a reminder, the IC50 is the concentration at which inhibition is half-maximal. What is called inhibition is the share of the control response that was lost under treatment. A high value points to a strong effect. For the molecule `CC(C)C[C@@H](NC(=O)[C@@H]1CCCN1C(=O)CNC(=O)c1ccc(N)cc1)C(=O)N[C@H](C)C(=O)NO` [Example 6] (H-[4Abz]GP[dL][dA]-{NHOH}; N-terminus and C-terminus assumed), in data set [1], the “Inhibition (%) Urease” value was determined as 2.0%. Moreover, the “Inhibition (%) Trypsin” value with trypsin (at 2.0 × 10^-3) was 6.5%. In data set [2] (setting [5]), the IC50 was 1.28 µM. Also, on α-chymotrypsin (at 2.0 × 10^-3 M), the inhibition at 2000 µM was 26.4%. Also, in the data set with mice, the “LD50 Intraperitoneal administration” value is over 2000 mg/kg and the “LD50 Intravenous administration” value is over 200 mg/kg. The “Inhibition (%) Bacterial collagenase” value in data set [3] (at 2.0 × 10^-4 M) stood at 7.1%. For the same molecule, the inhibition at 4000 µM against thermolysin amounted to 26.8%.
`CC(C)C[C@@H](NC(=O)[C@@H](CC(C)C)NC(=O)[C@@H]1CCCN1C(=O)CN1C(=O)c2ccccc2C1=O)C(=O)NO` [Example 40, PTHGlyPro-D-Leu-D-LeuNHOH]: the “Inhibition (%) Urease” value in data set [1] came out at 3.3%. The “Inhibition (%) Trypsin” value in the data set on trypsin (at 1.0 × 10^-2) was 21.6%. Besides, the IC50 is 3.6 µM in data set [2] (setting [5]) and 3.1 µM in data set [4] (read-out: IC50 Tadpole collagenase). Further, the inhibition at 10000 µM on α-chymotrypsin (at 1.0 × 10^-2 M) was found to be 22.3%. For the same molecule, in data set [3] (at 4.0 × 10^-3 M), the “Inhibition (%) Bacterial collagenase” value was 20.7%. The inhibition at 4000 µM at thermolysin was 32.2%.
For `CC(C)C[C@H](NC(=O)[C@@H]1CCCN1C(=O)CNC(=O)c1ccccc1)C(=O)N[C@@H](C)C(=O)NO` [Example 34, BzGlyProLeuAlaNHOH] (Bz-GPLA-{NHOH}), the values for the IC50 in data set [2] and in data set [4] were 2.7 µM and 7.7 µM, respectively. The inhibition at 200 µM on α-chymotrypsin (at 2.0 × 10^-4 M) turned out to be 0%. The molecule also had an inhibition at 4000 µM against thermolysin of 35%.
For the molecule `CC(C)C[C@H](NC(=O)[C@@H]1CCCN1C(=O)CNC(=O)OC(C)(C)C)C(=O)N[C@H](C(=O)NO)C(C)C` [Example 18, BocGlyProLeuValNHOH] (Boc-GPLV-{NHOH}), the values for the IC50 in data set [2] (setting [5]) and in data set [4] were 3.1 µM and 9.8 µM, respectively. At α-chymotrypsin, this molecule came in with an inhibition at 4000 µM of 0%. In addition, the inhibition at 10100 µM against thermolysin (at 1.01 × 10^-2 M) came to 50%.
With `CC(C)C[C@@H](NC(=O)[C@@H]1CCCN1C(=O)CNC(=O)c1ccccc1)C(=O)N[C@H](C)C(=O)NO` [Example 35, BzGlyPro-D-Leu-D-AlaNHOH] (Bz-GP[dL][dA]-{NHOH}), the IC50 came out at 6.4 µM in data set [2] and 3.1 µM in data set [4]. The same molecule gave an inhibition at 100 µM at α-chymotrypsin (at 1.0 × 10^-4 M) of 12.8%. At thermolysin, this molecule came in with an inhibition at 4000 µM of 38%.
Consider `CC(C)C[C@H](NC(=O)[C@@H]1CCCN1C(=O)CNC(=O)c1ccc(N)cc1)C(=O)N[C@@H](C)C(=O)NO` [Example 41, AcOH.ABAGlyProLeuAlaNHOH] (H-[4Abz]GPLA-{NHOH}), for which the half-maximal inhibitory concentration (IC50) turned out to be 3.7 µM in data set [2] (setting [5]) and 4 µM in data set [4]. In addition, the inhibition at 20 µM was 27.3% against α-chymotrypsin (at 2.0 × 10^-5 M) and 4% on thermolysin (at 2.0 × 10^-5 M). Moreover, the “LD50 Intraperitoneal administration” value with mice was over 2000 mg/kg. Further, in the data set on mice, the “LD50 Intravenous administration” value is reported as over 200 mg/kg.
As to `CC(C)C[C@@H](NC(=O)[C@@H]1CCCN1C(=O)CNC(=O)c1ccc(O)cc1)C(=O)N[C@H](C)C(=O)NO` [Example 7, p-Hydroxybenzoyl-glycyl-L-prolyl-D-leucyl-D-alanylhydroxamic acid] ({Benzoyl(4-OH)}-GP[dL][dA]-{NHOH}), the IC50 in data set [2] (setting [5]) was found to be 1.18 µM; in data set [4], 1.05 µM. The inhibition at 4000 µM at α-chymotrypsin stood at 22.3%; against thermolysin, 60.4%. In addition, the “LD50 Intraperitoneal administration” value in the data set with mice was over 2000 mg/kg. In the data set with mice, the “LD50 Intravenous administration” value was over 200 mg/kg.

The values above are taken from US5100874A, “Hydroxamic acid tetrapeptide derivatives” (Fuji Yakuhin Kogyo Kabushiki Kaisha, priority 1987, dated 1992).
